Measurements as given in US4607123A, “Water soluble 3,5-diacetamido-2,4,6-triiodobenzoic acid derivatives” (Dr. Franz Kohler Chemie GmbH, priority 1984, dated 1986).
One block for each compound: values may come before it.

Tests used:
water solubility = assay type: physicochemical; conditions: for solubility (in words): in water; for solubility: water
Source text: The configuration of the α-amino acid moiety may be arbitrary. The type of amino acid residue influences to a degree the solubility of the compound of the invention in water. For example, […]

[1] = viscosity of aqueous preparations (Table 1); assay type: physicochemical
Source text: The derivatives of compounds (I) of the invention which show a good solubility in water generally show viscosity values which, as can be expected, are dependent from the number and position of the hydroxy groups, as well as from the configuration of the amino acid residue. Representative compounds of the invention are shown in the Table 1, with their viscosity values.
Viscosity data in dependency from the type of amino acid and
the concentration of the preparation.

[2] = heat stability of a 67,9% aq. solution at different temperatures and times (Table 2); assay type: physicochemical
Source text: Behaviour of a 67,9% aq. solution of (II) at different temperatures

[3] = LD50 in mouse, i.v. (Table 3); assay type: in vivo; conditions: in vivo, iv, 14 days after application, solution with 300 mg J/ml
Protocol: (§1) LD50 in mouse, i.v. (14 days after application) of solution
(§2) with a content of 300 mg J/ml.

mouse = experiment: LD50 in mouse, i.v. (Table 3); assay type: in vivo
Protocol: as §1, §2

Structure (SMILES): CC(=O)Nc1c(I)c(NC(C)=O)c(I)c(C(=O)N(C)CC(=O)N(C)C[C@H](O)[C@@H](O)[C@H](O)[C@H](O)CO)c1I [II, N,N-[(3,5-diacetamido-2,4,6-triiodobenzoyl)-sarcosine]-N-methyl glucamide]
- solubility (in words) (water solubility): superior in respect to solubility
- solubility (water solubility; very soluble): > 1000 mg/mL
- Viscosity ([1]; 20° C., 100 mg J/ml): 2.16 cP
- Viscosity ([1]; 20° C., 150 mg J/ml): 3.50 cP
- Viscosity ([1]; 20° C., 200 mg J/ml): 5.74 cP
- Viscosity ([1]; 20° C., 250 mg J/ml): 10.84 cP
- Viscosity ([1]; 20° C., 300 mg J/ml): 18.88 cP
- Viscosity ([1]; 37° C., 100 mg J/ml): 1.48 cP
- Viscosity ([1]; 37° C., 150 mg J/ml): 2.22 cP
- Viscosity ([1]; 37° C., 200 mg J/ml): 3.32 cP
- Viscosity ([1]; 37° C., 250 mg J/ml): 6.20 cP
- Viscosity ([1]; 37° C., 300 mg J/ml): 9.22 cP
- Color ([2]; 30 min, 110 °C.): colorless
- Iodide ([2]; 30 min, 110 °C.): 2.63 mg J/100 ml
- pH ([2]; 30 min, 110 °C.): 7.85
- Color ([2]; 30 min, 120 °C.): colorless
- Iodide ([2]; 30 min, 120 °C.): 3.73 mg J/100 ml
- pH ([2]; 30 min, 120 °C.): 7.80
- Color ([2]; 60 min, 110 °C.): colorless
- Iodide ([2]; 60 min, 110 °C.): 3.72 mg J/100 ml
- pH ([2]; 60 min, 110 °C.): 7.75
- Color ([2]; base solution): colorless
- Iodide ([2]; base solution): 1.78 mg J/100 ml
- pH ([2]; base solution): 7.85
- LD50 at 336 h [3]: 36000 mg/kg
- toxicity (in words) (mouse; in vivo): low toxicity

Structure (SMILES): CC(=O)Nc1c(I)c(NC(C)=O)c(I)c(C(=O)NCCC(=O)N(C)C[C@H](O)[C@@H](O)[C@H](O)[C@H](O)CO)c1I [IV, N,N-[(3,5-diacetamido-2,4,6-triiodobenzoyl)-β-alanine]-N-methyl glucamide]
- solubility (water solubility; moderately soluble): ≤ 200 mg/mL

Structure (SMILES): CC(=O)Nc1c(I)c(NC(C)=O)c(I)c(C(=O)NCCCC(=O)N(C)C[C@H](O)[C@@H](O)[C@H](O)[C@H](O)CO)c1I [V, N,N-[(3,5-diacetamido-2,4,6-triiodobenzoyl)-γ-aminobutyric acid]-N-methyl glucamide]
- solubility (water solubility; moderately soluble): ≤ 200 mg/mL

Structure (SMILES): CC(=O)Nc1c(I)c(NC(C)=O)c(I)c(C(=O)O)c1I [lysine-diatrizoate, reference compound]
- LD50 (mouse; i.v., 14 days after application, solution with 300 mg J/ml, 20160 min): 14000 to 18000 mg/kg

Structure (SMILES): CC(=O)Nc1c(I)c(NC(C)=O)c(I)c(C(=O)O)c1I [sodium-meglumine-diatrizoate, reference compound]
- LD50 at 336 h [3]: 12000 to 14000 mg/kg

Results, then the compound that gave them:

- solubility (in words) (water solubility): superior in respect to solubility
- solubility (water solubility; very soluble): > 1000 mg/mL
- Viscosity ([1]; 20° C., 200 mg J/ml): 10.65 cP
- Viscosity ([1]; 20° C., 250 mg J/ml): 25.38 cP
- Viscosity ([1]; 37° C., 200 mg J/ml): 5.84 cP
- Viscosity ([1]; 37° C., 250 mg J/ml): 12.23 cP
Structure (SMILES): CC(=O)Nc1c(I)c(NC(C)=O)c(I)c(C(=O)NC(CC(=O)N(C)C[C@H](O)[C@@H](O)[C@H](O)[C@H](O)CO)C(=O)N(C)C[C@H](O)[C@@H](O)[C@H](O)[C@H](O)CO)c1I (mixture of isomers) [X, N,N-[(3,5-diacetamido-2,4,6-triiodobenzoyl)-DL-aspartic acid]-bis-N-methyl glucamide]

- solubility (water solubility; soluble): ≤ 500 mg/mL
Structure (SMILES): CC(=O)Nc1c(I)c(NC(C)=O)c(I)c(C(=O)N[C@@H](C)C(=O)N(C)C[C@H](O)[C@@H](O)[C@H](O)[C@H](O)CO)c1I [III, N,N-[(3,5-diacetamido-2,4,6-triiodobenzoyl)-L-alanine]-N-methyl glucamide]

- solubility (in words) (water solubility): superior in respect to solubility
- solubility (water solubility; very soluble): > 1000 mg/mL
- Viscosity ([1]; 20° C., 100 mg J/ml): 2.90 cP
- Viscosity ([1]; 20° C., 150 mg J/ml): 5.15 cP
- Viscosity ([1]; 20° C., 200 mg J/ml): 11.14 cP
- Viscosity ([1]; 20° C., 250 mg J/ml): 33.58 cP
- Viscosity ([1]; 20° C., 300 mg J/ml): 88.85 cP
- Viscosity ([1]; 37° C., 100 mg J/ml): 1.84 cP
- Viscosity ([1]; 37° C., 150 mg J/ml): 3.04 cP
- Viscosity ([1]; 37° C., 200 mg J/ml): 6.06 cP
- Viscosity ([1]; 37° C., 250 mg J/ml): 15.96 cP
- Viscosity ([1]; 37° C., 300 mg J/ml): 35.41 cP
Structure (SMILES): CC(=O)Nc1c(I)c(NC(C)=O)c(I)c(C(=O)N[C@@H](CC(=O)N(C)C[C@H](O)[C@@H](O)[C@H](O)[C@H](O)CO)C(=O)N(C)C[C@H](O)[C@@H](O)[C@H](O)[C@H](O)CO)c1I [IX, N,N-[(3,5-diacetamido-2,4,6-triiodobenzoyl)-L-aspartic acid]-bis-N-methyl glucamide]

- solubility (water solubility; soluble): ≤ 500 mg/mL
- Viscosity ([1]; 20° C., 100 mg J/ml): 2.13 cP
- Viscosity ([1]; 20° C., 150 mg J/ml): 3.11 cP
- Viscosity ([1]; 20° C., 200 mg J/ml): 5.15 cP
- Viscosity ([1]; 20° C., 250 mg J/ml): 9.43 cP
- Viscosity ([1]; 20° C., 300 mg J/ml): 20.05 cP
- Viscosity ([1]; 37° C., 100 mg J/ml): 1.84 cP
- Viscosity ([1]; 37° C., 150 mg J/ml): 1.95 cP
- Viscosity ([1]; 37° C., 200 mg J/ml): 3.04 cP
- Viscosity ([1]; 37° C., 250 mg J/ml): 5.16 cP
- Viscosity ([1]; 37° C., 300 mg J/ml): 9.71 cP
Structure (SMILES): CC(=O)Nc1c(I)c(NC(C)=O)c(I)c(C(=O)N[C@@H](CO)C(=O)N(C)C[C@H](O)[C@@H](O)[C@H](O)[C@H](O)CO)c1I [VIII, N,N-[(3,5-diacetamido-2,4,6-triiodobenzoyl)-L-serine]-N-methyl glucamide]

- solubility (in words) (water solubility): superior in respect to solubility
- solubility (water solubility; moderately soluble): ≤ 200 mg/mL
- solubility (water solubility; very soluble): > 1000 mg/mL
Structure (SMILES): CC(=O)Nc1c(I)c(NC(C)=O)c(I)c(C(=O)N[C@@H](CCC(=O)N(C)C[C@H](O)[C@@H](O)[C@H](O)[C@H](O)CO)C(=O)N(C)C[C@H](O)[C@@H](O)[C@H](O)[C@H](O)CO)c1I [XI, N,N-[(3,5-diacetamido-2,4,6-triiodobenzoyl)-L-glutamic acid]-bis-N-methyl glucamide]

- solubility (water solubility; moderately soluble): ≤ 200 mg/mL
Structure (SMILES): CC(=O)Nc1c(I)c(NC(C)=O)c(I)c(C(=O)NCCCC[C@H](NC(=O)C(C)O)C(=O)N(C)C[C@H](O)[C@@H](O)[C@H](O)[C@H](O)CO)c1I (stereo partly drawn) [XII, N,N-[α-lactyl-ε-(3,5-diacetamido-2,4,6-triiodobenzoyl)-L-lysine]-N-methyl glucamide]
